{"source": "patent US9585929B2", "about": "(ZHEJIANG KANGLAITE GROUP CO., LTD., priority 2014, dated 2017)", "key": {"[1]": {"test_system": "SMMC-7721 human hepatoma", "assay": "Xenograft model of SMMC-7721 human hepatoma inoculated subcutaneously in nude mice", "type": "in vivo", "experimental": "A549 Human lung cancer cells cryopreserved in liquid nitrogen were recovered, and incubated in a 37 incubator under 5% CO2. After being subcultured, cells in a logarithmic growth stage were distributed with normal saline to be a cell suspension in a concentration of 1-2×10^7 cells/ml. The cell suspension was inoculated into BALB/C nude mice (SPF grade, 18-20 g, 6 weeks old, male) subcutaneously at right axillary. The tumor tissues were aseptically taken from the 2nd generation of xenograft model of A549 human lung cancer in a vigorous growth stage and cut into small uniform pieces in the size of 1-2 mm^3. The right axillary of each nude mouse was inoculated one piece subcutaneously via a trocar. When the inoculated tumor could be touched, the mice were randomly grouped and administered according to the experimental design program. […] The nude mice were fed in a laminar flow rack. Tumor sizes and animal weights were observed and tested dynamically. Mice in each group were sacrificed 3 weeks later or so, and tumors were surgically removed and weighed. The inhibition rate on tumor was calculated according to the following formula: Inhibition rate %=[(Mean tumor weight of the control group−mean tumor weight of the treatment group)/mean tumor weight of the control group]×100%;\n(§10) Q value of antitumor effect in drug combination was calculated according to Jin's formula: Q=Ea+b/(Ea+Eb−Ea×Eb) Wherein Ea+b=the tumor inhibition rate of drug combination, Ea or Eb=the tumor inhibition rate of drug A or drug B, respectively. If Q value=0.85-1.15, an additive effect (+) was shown; if Q value>1.15, a synergistic effect (++) was shown."}, "[2]": {"test_system": "PANC-1 human pancreatic cancer", "assay": "PANC-1 human pancreatic cancer model in nude mice", "type": "in vivo, BALB/C nude mice", "details": "Gemcitabine 60 mg/kg iv × 1", "experimental": "as §10\nPANC-1 human pancreatic cancer cells: inoculated in BALB/C nude mice, 16-18 g, female\nTumor blocks of well-grown PANC-1 human pancreatic cancer were inoculated subcutaneously in 4-week-old female BALB/C nude mice. The nude mice were grouped randomly and administered. One week after the end of the administration, the mice were sacrificed and dissected. Tumor blocks were taken out and weighed. Differences of tumor weight between each experimental group and the control group were compared and the tumor inhibition rates were calculated."}, "[3]": {"test_system": "FC-3M human prostate cancer", "assay": "FC-3M human prostate cancer model in nude mice", "type": "in vivo, BALB/C nude mice", "experimental": "The injection of the invention (10 g/100 ml), Leuprolide acetate (Lupron) and normal saline\nTumor blocks of well-grown FC-3M human prostate cancer were homogenized in normal saline (1:4). Each nude mouse was inoculated with 0.2 ml of the suspension at the right axilla subcutaneously, and the mice were grouped randomly. The administration began from the next day. 21 Days after the inoculation, the mice were sacrificed. Tumor blocks were taken out and weighed. Differences of tumor weight between each experimental group and the control group were compared and the tumor inhibition rates were calculated."}, "[4]": {"test_system": "S180 sarcoma", "assay": "S180 sarcoma model in mice", "type": "in vivo, Kunmin mice", "procedure": "The injection of the invention (10 g/100 ml), Cyclophosphamide (CTX), Mitoxantrone (DHAD), Mitomycin (MMC) and normal saline\nAscitic fluid of mice having well-grown […] sarcoma was diluted with normal saline (1:4) to obtain a cell suspension of about 1-2×10^7 cells/ml. Each mouse was inoculated with 0.2 ml of the suspension subcutaneously at the right axilla, and the mice were grouped randomly. The administration began from the next day according to the dosage program in Table 7. On the tenth day after the inoculation of S180, animals were sacrificed via cervical dislocation and dissected to take out the tumor block. Weights of tumor were compared and inhibition rates were calculated for each group."}, "[5]": {"test_system": "A549 (human lung cancer cells)", "assay": "MTT inhibition of tumor cell growth in vitro", "type": "cell-based", "procedure": "(§1) The inhibition effects of samples on the above-mentioned cell lines were detected by using MTT method. The specific procedures were as follows:\n(§2) (1) Cell culture: (a) Storaged cells were taken out from the liquid nitrogen, thawed quickly in a 37 water bath, then aseptically transferred into 6 ml of cellular medium in a 10 ml centrifugal tube, centrifuged at 1000 rpm for 5 min. The supernatant was discarded, then the precipitated cells were re-suspensed in 5-6 ml cellular media by pipetting and transferred into a flask in a 37 incubator for cell culture; (b) Next day, the flask was taken out from the incubator and the used medium was discarded, then the cells were incubated in 5-6 ml fresh medium in the 37 incubator; (c) On the third day, the flask was taken out from the incubator and the used medium was discarded, then 2-3 ml of PBS (pH7.4) was added into the flask with rocking for cleaning it and the used PBS was discarded. Such a cellular cleaning step was repeated once again. 3-5 drops of 0.25% trypsin solution were added into the flask with sloshing, thus well-distributed in it. The flask was capped and placed in a 37 incubator for about 3 min, and the separation of cells from the flask wall was observed under the microscope. 2 ml of cellular medium was added and cells were separated completely from the flask wall by pipetting, then the cell suspension was transferred into 2 separate clean flasks, each containing 5-6 ml medium. The cell suspension was well-distributed by pipetting, then the flask was placed in a 37 incubator. (d) Step (c) was repeated every other day. In the whole cultivation process, adherent cells were not allowed to grow too dense and suspension cells were always maintained at a logarithmic growth stage.\n(§3) This solution was diluted in a gradient dilution with PBS to obtain a set of sample solutions in the concentration of 10 mg/ml, 5000 μg/ml, 2500 μg/ml, 1250 μg/ml, 625 μg/ml and 312.5 μg/ml, respectively.\n(§4) (3) Each diluted sample solution was added into duplicated wells of a 96 well flat-bottom microplate (10 μl/well). The correspondingly diluted DMSO solutions, as controls, were added into the wells of the microplate.\n(§5) (4) Cells in a logarithmic growth stage were trypsinized and washed, then re-suspended in the medium containing 10% calf serum. The number of living cells was counted in Trypan blue dye exclusion method and cell suspensions were adjusted into a density of 2×10^5 cell/ml.\n(§6) (5) The cell-contained 96 well flat-bottom microplate was placed in a 37 incubator and cells were incubated under 5% CO2 for 48 h.\n(§7) (6) 20 μl of 5 mg/ml MTT solution was added into each well and cells were incubated continuously in the incubator for 3-4 h.\n(§8) (7) 100 μl of crystal dissolving solution was added into each well and cells were incubated continuously in the incubator overnight, so as to dissolve the resulted formazan crystals sufficiently. Then, the absorbance value was measured at 570 nm for each well.\n(§9) (8) Based on absorbance values, inhibition rates on the cell growth were calculated for sample groups of various concentrations. The calculation formula was as follows: (1−mean absorbance of experimental wells/mean absorbance of control wells)×100%"}, "[6]": {"test_system": "Bcap-37 (human breast cancer cells)", "assay": "MTT inhibition of tumor cell growth in vitro", "type": "cell-based", "details": "Bcap37", "procedure": "as §1, §2, §3, §4, §5, §6, §7, §8, §9"}, "[7]": {"test_system": "H460 (human lung cancer cells)", "assay": "MTT inhibition of tumor cell growth in vitro", "type": "cell-based", "details": "NCI-H460", "procedure": "as §1, §2, §3, §4, §5, §6, §7, §8, §9"}, "[8]": {"test_system": "HepG-2 (human hepatic cancer cells)", "assay": "MTT inhibition of tumor cell growth in vitro", "type": "cell-based", "details": "HepG2", "procedure": "as §1, §2, §3, §4, §5, §6, §7, §8, §9"}, "[9]": {"test_system": "MCF-7 (human breast cancer cells)", "assay": "MTT inhibition of tumor cell growth in vitro", "type": "cell-based", "details": "MCF7", "procedure": "as §1, §2, §3, §4, §5, §6, §7, §8, §9"}, "[10]": {"test_system": "PANC-1 (human pancreatic cancer cells)", "assay": "MTT inhibition of tumor cell growth in vitro", "type": "cell-based", "procedure": "as §1, §2, §3, §4, §5, §6, §7, §8, §9"}, "[11]": {"test_system": "SKOV3 (human ovarian cancer cells)", "assay": "MTT inhibition of tumor cell growth in vitro", "type": "cell-based", "details": "SK-OV-3", "procedure": "as §1, §2, §3, §4, §5, §6, §7, §8, §9"}, "[12]": {"test_system": "SMMC-7721 (human hepatic cancer cells)", "assay": "MTT inhibition of tumor cell growth in vitro", "type": "cell-based", "procedure": "as §1, §2, §3, §4, §5, §6, §7, §8, §9"}, "[13]": {"test_system": "MDA-MB-435 human breast cancer", "assay": "MDA-MB-435 human breast cancer model in nude mice", "type": "in vivo, BALB/C nude mice", "details": "Paclitaxel 50 mg/kg ip × 1", "procedure": "Each nude mouse was inoculated with 0.2 ml of the suspension at the right axilla subcutaneously, and the mice were grouped randomly. The administration began from the 7th day after the inoculation. 18 Days after the inoculation, the mice were sacrificed. Tumor blocks were taken out and weighed. Differences of tumor weight between each experimental group and the control group were compared, and tumor inhibition rates and Q values were calculated."}, "[14]": {"test_system": "LM-3 human hepatoma", "assay": "Xenograft model of LM-3 human hepatoma inoculated subcutaneously in nude mice", "procedure": "The injection of the invention (10 g/100 ml), cyclophosphamide (Jiangsu Hengrui Medicine Co., Ltd), blank fat emulsion and normal saline"}, "[15]": {"test_system": "W256 cancer sarcoma", "assay": "W256 cancer sarcoma model in rats", "type": "in vivo, Wistar rats", "procedure": "The injection of the invention (10 g/100 ml), Cyclophosphamide (CTX) and normal saline\nW256 cancer sarcoma: inoculated in Wistar rats, 50-60 g, female\nAscitic fluid of rats with well-grown W256 cancer sarcoma was diluted with normal saline to obtain a cell suspension of about 1-2×10^7 cells/ml. Each rat was inoculated with 0.2 ml of the suspension at the right axilla subcutaneously. The rats were grouped randomly next day and began administration. Two weeks later, animals were sacrificed and dissected to take out the tumor block. Weights of tumor were compared between each experimental group and the control group and tumor inhibition rates were calculated."}, "[16]": {"details": "Gemcitabine 25 mg/kg iv × 3 q 3 d"}, "[17]": {"details": "Gemcitabine 50 mg/kg iv × 3 q 3 d"}, "[18]": {"details": "cyclophosphamide 15 mg/kg ip × 7 qd"}, "[19]": {"details": "cyclophosphamide 30 mg/kg ip × 7 qd"}}, "note": "Where a name gives a salt, the structure may show the parent alone. Marks after values point to notes of the source that are not given here.", "data": [{"molecule": "Nc1ccn([C@@H]2O[C@H](CO)[C@@H](O)C2(F)F)c(=O)n1", "note": "[Gemcitabine, gemcitabine hydrochloride]", "values": [{"measurement": "Inhibition rate", "setting": "[1]; [16]", "result": 49.14, "unit": "%"}, {"measurement": "Weight of animal end", "setting": "[1]; [16]", "result": 25.1, "unit": "g"}, {"measurement": "Weight of animal start", "setting": "[1]; [16]", "result": 20.1, "unit": "g"}, {"measurement": "Weight of tumor x ± SD", "setting": "[1]; [16]", "result": "0.886 ± 0.24", "unit": "g"}, {"measurement": "Inhibition rate", "setting": "[1]; [17]", "result": 87.66, "unit": "%"}, {"measurement": "Weight of animal end", "setting": "[1]; [17]", "result": 24.2, "unit": "g"}, {"measurement": "Weight of tumor x ± SD", "setting": "[1]; [17]", "result": "0.215 ± 0.11", "unit": "g"}, {"measurement": "Inhibition rate", "setting": "[2]", "result": 24.61, "unit": "%"}, {"measurement": "Weight of tumor x ± SD", "setting": "[2]", "result": "0.1443 ± 0.081", "unit": "g"}]}, {"molecule": "CCNC(=O)[C@@H]1CCCN1C(=O)[C@H](CCCNC(=N)N)NC(=O)[C@H](CC(C)C)NC(=O)[C@@H](CC(C)C)NC(=O)[C@H](Cc1ccc(O)cc1)NC(=O)[C@H](CO)NC(=O)[C@H](Cc1c[nH]c2ccccc12)NC(=O)[C@H](Cc1c[nH]cn1)NC(=O)[C@@H]1CCC(=O)N1", "note": "[Lupron, Leuprolide acetate]", "values": [{"measurement": "Inhibition rate", "setting": "[3]; Lupron 0.75 ml/kg iv × 1", "result": "36.36** %"}, {"measurement": "Weight of tumor x ± SD", "setting": "[3]; Lupron 0.75 ml/kg iv × 1", "result": "0.98 ± 0.23", "unit": "g"}, {"measurement": "Inhibition rate", "setting": "[3]; Lupron 1.5 ml/kg iv × 1", "result": "50.65** %"}, {"measurement": "Weight of tumor x ± SD", "setting": "[3]; Lupron 1.5 ml/kg iv × 1", "result": "0.76 ± 0.14", "unit": "g"}]}, {"molecule": "CO[C@@]12[C@H](COC(N)=O)C3=C(C(=O)C(C)=C(N)C3=O)N1C[C@@H]1N[C@@H]12", "note": "[MMC, Mitomycin]", "values": [{"measurement": "Inhibition rate", "setting": "[4]; MMC 1.5 mg/kg ip × 2(1, 3)", "result": "38.61* %"}, {"measurement": "Weight of tumor x ± SD", "setting": "[4]; MMC 1.5 mg/kg ip × 2(1, 3)", "result": "0.97 ± 0.19", "unit": "g"}]}, {"molecule": "CC(=O)O[C@H]1C(=O)[C@@]2(C)[C@H]([C@H](OC(=O)c3ccccc3)[C@]3(O)C[C@H](OC(=O)[C@H](O)[C@@H](NC(=O)c4ccccc4)c4ccccc4)C(C)=C1C3(C)C)[C@]1(OC(C)=O)CO[C@@H]1C[C@@H]2O", "note": "[Taxol, paclitaxel]", "values": [{"measurement": "IC50", "setting": "[5]", "result": 0.46, "unit": "µg/mL"}, {"measurement": "IC50", "setting": "[6]", "result": 0.28, "unit": "µg/mL"}, {"measurement": "IC50", "setting": "[7]", "result": 0.49, "unit": "µg/mL"}, {"measurement": "IC50", "setting": "[8]", "result": 0.45, "unit": "µg/mL"}, {"measurement": "IC50", "setting": "[9]", "result": 0.18, "unit": "µg/mL"}, {"measurement": "IC50", "setting": "[10]", "result": 0.44, "unit": "µg/mL"}, {"measurement": "IC50", "setting": "[11]", "result": 0.22, "unit": "µg/mL"}, {"measurement": "IC50", "setting": "[12]", "result": 0.41, "unit": "µg/mL"}, {"measurement": "Inhibition rate", "setting": "[13]", "result": 62.87, "unit": "%"}]}, {"molecule": "O=P1(N(CCCl)CCCl)NCCCO1", "note": "(centres unmarked) [cyclophosphamide, Cyclophosphamide]", "values": [{"measurement": "Inhibition rate", "setting": "[14]; [18]", "result": 27.82, "unit": "%"}, {"measurement": "Weight of animal end", "setting": "[14]; [18]", "result": 24.8, "unit": "g"}, {"measurement": "Weight of animal start", "setting": "[14]; [18]", "result": 20.7, "unit": "g"}, {"measurement": "Weight of tumor x ± SD", "setting": "[14]; [18]", "result": "1.108 ± 0.09", "unit": "g"}, {"measurement": "Inhibition rate", "setting": "[14]; [19]", "result": 82.74, "unit": "%"}, {"measurement": "Weight of animal end", "setting": "[14]; [19]", "result": 25.0, "unit": "g"}, {"measurement": "Weight of animal start", "setting": "[14]; [19]", "result": 20.5, "unit": "g"}, {"measurement": "Weight of tumor x ± SD", "setting": "[14]; [19]", "result": "0.265 ± 0.12", "unit": "g"}, {"measurement": "Inhibition rate", "setting": "[4]; CTX 30 mg/kg ip × 2(1, 3)", "result": "41.77* %"}, {"measurement": "Weight of tumor x ± SD", "setting": "[4]; CTX 30 mg/kg ip × 2(1, 3)", "result": "0.92 ± 0.21", "unit": "g"}, {"measurement": "Inhibition rate", "setting": "[15]; CTX 10 mg/kg iv × 2(3, 5)", "result": "37.83* %"}, {"measurement": "Weight of tumor x ± SD", "setting": "[15]; CTX 10 mg/kg iv × 2(3, 5)", "result": "2.12 ± 1.22", "unit": "g"}, {"measurement": "Inhibition rate", "setting": "[15]; CTX 30 mg/kg iv × 7", "result": "87.68** %"}, {"measurement": "Weight of tumor x ± SD", "setting": "[15]; CTX 30 mg/kg iv × 7", "result": "0.42 ± 0.85", "unit": "g"}]}]}
